Measurements as given in US20260317367A1, “SALTS INCLUDING CRYSTALLINE SALTS OF 25-HYDROXY-CHOLEST-5-EN-3-SULFATE AND METHODS FOR PREPARING SAME” (Durect Corporation, priority 2022, published 2026).
Where a name gives a salt, the structure may show the parent alone.

Assays:
Format in all cases: physicochemical
[1] = Hausner ratio and compressibility index of 25HC3S salts; settings: listed as 25HC3S hydroxyethylpyrrolidinium
Method in brief: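 Powder poured into a 5 mL graduated cylinder to about 5.0 mL (Vo), tapped 200 then 100 more times on a hard surface; final volume Vf recorded after 300 taps. Compressibility index and Hausner ratio calculated from Vo and Vf; flow character classed per USP <1174>.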

[2] = Final pH of the solubility sample solutions in aqueous media
Method in brief: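 25HC3S salts shaken as excess-solid suspensions in aqueous media at room temperature (210 motions/min) for one day. Aliquots centrifuged at 12000 rpm for 12–15 min; clear supernatant assayed undiluted by HPLC.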

[3] = Appearance (color, clumping, flowability) of stored 25HC3S salts; settings: for Appearance: listed as 25HC3S hydroxyethylpyrrolidinium
[4] = Solid-state chemical stability of 25HC3S salts at 2-8° C., 60° C. and 80° C. (HPLC assay and degradation products); settings: for % Impurities, Total / % Impurities, 25-HC: ND = Not Detected; for % Impurities, 25-HC: 25-Hydroxy-Cholesterol; for Physical and chemical solid-state stability (comments): listed as 25HC3S Hydroxyethylpyrrolidinium
Method in brief: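 Crystalline 25HC3S salts (~25 mg powder per vial) stored at 2-8° C. or 80° C., pulled at 3 and 6 weeks; some 3-week 2-8° C. vials moved to 60° C. for 1 week. Dissolved in 100% methanol (sonication/vortexing, centrifugation or dilution), then HPLC against 25HC3S sodium standards (0.75-1.25 mg/mL) for assay and degradants.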

[5] = Solubility of 25HC3S salts after one day at room temperature (HPLC, as free acid); settings: room temperature, one day
Method in brief: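 25HC3S salts were shaken with excess solid at room temperature for one day in organic solvents or aqueous/biorelevant media (FaSSIF, FeSSIF, FaSSGF), then centrifuged. Supernatants were assayed by HPLC against a free-acid standard curve (11 μg/mL to 1.5 mg/mL); values are mg/mL free acid, LOD 0.0007 mg/mL.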

[6] = Overall rank order of powder flowability (angle of repose and Hausner ratio)
Source text: Table C5 was generated by adding the relative rank order of the 25HC3S salts for angle of repose and Hausner ratio results, and creating an Over All Rank Order of the salts powder flowability. The salts with the lower overall rank order score had better powder flowability.

[7] = 2-8° C., 3 wk, listed as 25HC3S hydroxyethylpyrrolidinium
[8] = 60° C., 1 wk, listed as 25HC3S hydroxyethylpyrrolidinium
[9] = 80° C., 3 wk, listed as 25HC3S hydroxyethylpyrrolidinium
[10] = listed as crystalline 25HC3S hydroxyethylpyrrolidinium
[11] = rank, lower is better flow, listed as 25HC3S hydroxyethylpyrrolidinium

Compound: CC(CCCC(C)(C)O)C1CCC2C3CC=C4CC(OS(=O)(=O)O)CCC4(C)C3CCC12C (stereo not shown) [Salt #6]
- Compressibility Index ([1]; Table C3 heads this index in %): 35
- Hausner Ratio [1]: 1.53
- pH of the solubility sample, 0.9% Sodium Chloride ([2]; 0.9% sodium chloride (blank 5.8), listed as 25HC3S hydroxyethylpyrrolidinium): 8.3
- pH of the solubility sample, 5% Dextrose ([2]; 5% dextrose (blank 4.7), listed as 25HC3S hydroxyethylpyrrolidinium): 6.4
- pH of solubility sample solution in 5% dextrose ([2]; 5% dextrose (medium pH 4.7)): 6.4
- pH of the solubility sample, FaSSGF ([2]; FaSSGF (blank 1.5, 1.6)): 1.6
- pH of the solubility sample, FaSSIF ([2]; FaSSIF (blank 6.5, 6.5), listed as 25HC3S hydroxyethylpyrrolidinium): 6.5
- pH of the solubility sample, FeSSIF ([2]; FeSSIF (blank 4.9, 5.0), listed as 25HC3S hydroxyethylpyrrolidinium): 4.9
- pH of the solubility sample, Water ([2]; water (blank 6.3), listed as 25HC3S hydroxyethylpyrrolidinium): 8.2
- Appearance ([3]; 2-8° C., 3 wk): White, free flowing powder with clumping
- Appearance ([3]; 60° C., 1 wk (after 3 weeks at 2-8° C.)): White, free flowing powder with clumping
- Appearance after 3 weeks at 80° C. ([3]; 80° C., 3 weeks): completely burned
- Appearance ([3]; 80° C., 3 wk): Dark brown, melted material stuck to
- Assay ([4]; 2-8° C., 3 wk, 30240 min, listed as 25HC3S hydroxyethylpyrrolidinium): 100.5 % w/w
- % Impurities, Total [4, 7]: 2.0%
- % Impurities, 25-HC [4, 7]: 0.3%
- % Impurities, 25-HC [4, 8]: 0.4%
- % Impurities, 25-HC [4, 9]: 0.3%
- Physical and chemical solid-state stability (comments) ([4]; 60° C., 1 week): Stable after 1 week at 60 °C
- Assay ([4]; 60° C., 1 wk (after 3 weeks at 2-8° C.), 10080 min, listed as 25HC3S hydroxyethylpyrrolidinium, 10080 min): 104.9 % w/w
- % Recovery of 2-8° C./3 wk vs 60° C./1 wk ([4]; 60° C., 1 wk, 10080 min, listed as 25HC3S hydroxyethylpyrrolidinium): 104.4%
- % Impurities, Total [4, 8]: 1.8%
- Physical and chemical solid-state stability (comments) ([4]; 80° C., 3 weeks): totally decomposed after 3
- % Recovery ([4]; 80° C., 3 wk, vs 2-8° C., 30240 min, listed as 25HC3S hydroxyethylpyrrolidinium, 30240 min): 0.0%
- Assay ([4]; 80° C., 3 wk, 30240 min, listed as 25HC3S hydroxyethylpyrrolidinium): 0.0 % w/w
- % Impurities, Total [4, 9]: 99.9%
- Stability after 1 week at 60° C. (in words) ([4]; solid state, 60° C., 1 week (after 3 weeks at 2-8° C.)): stable
- Stability after 3 weeks at 80° C. (in words) ([4]; solid state, 80° C., 3 weeks): totally decomposed
- Solubility in 0.9% NaCl ([5]; 0.9% NaCl, as free acid, ND = not detected, detection limit 0.7 μg/mL, 1440 min, listed as 25HC3S hydroxyethylpyrrolidinium): 3 µg/mL
- Solubility in 5% Dextrose ([5]; as free acid, LOD 0.0007 mg/mL, 1440 min): 642 µg/mL
- Solubility in 5% Dextrose ([5]; as free acid, ND = not detected, detection limit 0.7 μg/mL, 1440 min, listed as 25HC3S hydroxyethylpyrrolidinium): 642 µg/mL
- Solubility in acetonitrile (in words) ([5]; ACN): relatively high solubility
- Solubility in FaSSGF (in words) ([5]; FaSSGF): high solubility
- Solubility in FaSSGF ([5]; FaSSGF, as free acid, ND = not detected, detection limit 0.7 μg/mL, 1440 min, listed as 25HC3S hydroxyethylpyrrolidinium): 10 µg/mL
- Solubility in FaSSIF (in words) ([5]; FaSSIF): high solubility
- Solubility in FaSSIF ([5]; FaSSIF, as free acid, 1440 min, listed as 25HC3S hydroxyethylpyrrolidinium): 161 µg/mL
- Solubility in FaSSIF (in words) ([5]; FaSSIF, listed as crystalline 25HC3S hydroxyethylpyrrolidinium): relatively high solubility
- Solubility in FaSSIF ([5]; Fasted State Simulated Intestinal Fluid, as free acid, 1440 min): 161 µg/mL
- Solubility in FeSSIF (in words) [5]: high solubility
- Solubility in FeSSIF (in words) [5, 10]: relatively high solubility
- Solubility in methanol (in words) ([5]; MeOH): did not reach saturation
- Solubility in ACN ([5]; acetonitrile, as free acid, 1440 min, listed as 25HC3S hydroxyethylpyrrolidinium): 1200 µg/mL
- Solubility in 5% dextrose (in words) [5]: highest solubility
- Solubility in 5% dextrose (in words) [5, 10]: relatively high solubility
- Solubility in IPA ([5]; isopropyl alcohol, as free acid, 1440 min, listed as 25HC3S hydroxyethylpyrrolidinium): 6700 µg/mL
- Solubility in saline / 0.9% sodium chloride (in words) ([5]; saline): highest solubility
- Solubility in water (in words) ([5]; water): highest solubility
- Solubility in H2O ([5]; water, as free acid, ND = not detected, detection limit 0.7 μg/mL, 1440 min, listed as 25HC3S hydroxyethylpyrrolidinium): 273 µg/mL
- Powder flowability, overall (in words) ([6]; angle of repose and compressibility index/Hausner ratio combined, listed as hydroxyethylpyrrolidinium): poorer flowability
- Angle of Repose Rank Order [6, 11]: 15
- Hausner Ratio Rank Order [6, 11]: 10
- Overall Rank Order (Total Score) ([6]; sum of both ranks, lower is better flow, listed as 25HC3S hydroxyethylpyrrolidinium): 25
